According to patent US20180280400A1, “TRANSDERMAL ADMINISTRATION SYSTEM FOR USE IN THE TREATMENT OF CHRONIC BRONCHOPULMONARY DISEASES” (ABC FARMACEUTICI S.P.A., priority 2013, published 2018):

Key:
[1] = system: human keratinocyte cell lines (HACAT); test: MTT cytotoxicity test, HACAT; format: cell-based
[2] = system: human fibroblast cell lines (HFF); test: MTT cytotoxicity test, HFF; format: cell-based
[3] = system: human endothelial cells from the umbilical vein (HUVEC); test: MTT cytotoxicity test, HUVEC; format: cell-based
[4] = In vitro-ex vivo skin permeation across human epidermis, Franz diffusion cells; format: in vitro ADME; details: 4% w/v, up to 24 hours
Protocol: The Franz diffusion cells comprise two compartments, one containing the active ingredient (donor vehicle) and the other containing a receiving solution, separated by a slice of human epidermis. The vertical cells used in the actual experimental unit have a wider column than that in the original Franz type of diffusion cell, and the decanter shape was dispensed with. These have a diffusion area of 0.636 cm^2 and a receiving compartment of approximately 3.0 ml. The receiving volume in each cell is individually calibrated and equipped with a magnetic stirrer. Human epidermis was selected as the membrane for skin permeation studies. The skin used in the studies was obtained from the abdominal skin of a donor who underwent cosmetic surgery. The skin samples were prepared following an internal standard procedure. The full thickness of the skin was sealed in evacuated plastic bags and frozen at -20° C. within 6 hours of removal. Before the experiments the skin was thawed out at ambient temperature and excess fat was completely removed. […] The integrity of the skin was evaluated by measuring the impedance of each sample (Agilent LCR Meter 4263B). Subsequently the epidermis was mounted in the Franz diffusion cell, the receiving compartment of which was filled with saline solution (NaCl 0.9% w/v) filtered using a 0.22 μm filter (VWR, nylon membrane). […]

in vitro = details: dog, MDCK, pH 7.4
Protocol: (§1) MDCK cells were kept in Minimal Essential Medium Eagle (EMEM) containing 10% FBS, 2 nM of fresh L-glutamine and 2 nM of penicillin-streptomycin. The culture inserts were inseminated with 664000 cells per cm^2 (0.33 cm^2 per insert). The monolayers of MDCK were cultured for three days before use. The monolayers were washed with Hanks Balanced Salt Solution (HBSS+10 nM Hepes pH 7.4) transport medium; the electrical resistance of each monolayer was measured at 37° C. using a Millicell ERS-2 (Millipore). Background resistance values were subtracted from the resistance values of treated wells of monolayer. The resulting value was multiplied by the area of the membrane (0.33 cm^2) to calculate the transepithelial electrical resistance values (TEER (Ω cm^2)) for each monolayer. TEER values indicate the degree of confluence of the monolayer and the development of tight junctions. If the resistance was <200 Ω cm^2 the test was continued. MDCK monolayers having TEER values>200 Ω cm^2 were not used. The donor solutions in the transport test comprised 100 μM of test compound in the transport medium containing 100 nM of fluorescein isocyanate-dextran. The transport tests were performed using 0.250 ml of apical donor solution and 1 ml of basolateral acceptor solution (transport medium, pH 7.4). […] The monolayers were incubated with donor and acceptor solutions for 120 minutes at 37° C. The basolateral compartments were sampled after 120 minutes and analysed using LC-MS/MS, together with an aliquot of the donor solutions in the transport test (100 μM of the test compound) corresponding to (sample at time zero).
(§2) in which dQ/dt is the permeation velocity, CA is the initial concentration in the donor compartment and A is the surface area of the filter. […]
(§3) The integrated peak area for the LC-MS/MS chromatograms was used as the instrument response (INRE) for relative quantification of the test material.
(§4) The permeability of the test material was then evaluated by comparing the INRE for five replicates after two hours incubation, on the basis of the INRE response to the t0 samples.

[5] = with chemical potentiating agents, including oleic acid; cited from earlier work

Protocol for MDCK monolayers: as §1, §2, §3, §4

Cn1c(=O)c2c(ncn2CC2OCCO2)n(C)c1=O [Doxofylline, 2-(7′-theophyllinemethyl)-1,3-dioxolane]
cytotoxicity (MTT test) [1]: no cytotoxicity
cytotoxicity (MTT test) [2]: no cytotoxicity
cytotoxicity (MTT test) [3]: no cytotoxicity
skin permeability values (permeate over time) ([4]; aqueous solvent, FIG. 1): substantially higher than those for theophylline
skin permeability values (permeate over time) ([4]; triacetin solvent, FIG. 2): substantially higher than those for theophylline
permeability value (in words) (MDCK monolayers): high permeability value
Papp A→B at 120 min, 100 µM (in vitro): 22.7 ×10⁻⁶ cm/s

COCCc1ccc(OCC(O)CNC(C)C)cc1 (stereo not drawn) [Metoprolol, metoprolol]
Papp A→B at 120 min, 100 µM (in vitro): 6.52 ×10⁻⁶ cm/s

Cn1c(=O)c2[nH]cnc2n(C)c1=O [Theophylline, theophylline]
administered flow through human skin [5]: insufficient
